Results taken from ChEMBL document CHEMBL1201862, “PubChem BioAssay data set” (2004).
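Growth conditions: 96-well plates. Treatment: test compound, 48 hours, 5 concentrations. Analysis: linear interpolation between bracketing concentrations; unreached endpoints set to highest concentration. GI50 = concentration required for 50% inhibition of growth.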 Activity calls are given as the source filed them. No stated cut-off is given here; in the data, active = GI50 up to about 1.1 µM and inactive = higher.

Assays:
Test in all cases: DTP human tumour cell line panel, 48 h
[1] = test system: 786-0
[2] = test system: MOLT-4
[3] = test system: HCC 2998
[4] = test system: OVCAR-8
[5] = test system: HCT-116
[6] = test system: EKVX
[7] = test system: HT-29
[8] = test system: A498
[9] = test system: CCRF-CEM
[10] = test system: NCI-H23
[11] = test system: TK-10
[12] = test system: M14
[13] = test system: NCI-H522
[14] = test system: IGROV-1
[15] = test system: KM12
[16] = test system: HOP-92
[17] = test system: SF-295
[18] = test system: UACC-62
[19] = test system: LOX IMVI

Measured: GI50

N#CC(C(=O)CCCC(=O)Nc1ccccc1[N+](=O)[O-])c1c(Cl)cccc1Cl (centres undefined)
inactive: [1] > 100 µM | [2] > 100 µM | [3] > 100 µM | [4] > 100 µM | [5] > 100 µM | [6] > 100 µM | [7] > 100 µM | [8] > 100 µM | [9] > 100 µM | [10] > 100 µM | [11] > 100 µM | [12] > 100 µM | [13] > 100 µM | [14] > 100 µM | [15] > 100 µM | [16] 61.9 µM | [17] > 100 µM | [18] > 100 µM

O=C(O)Cc1ccc2c(c1O)C(=O)c1c(ccc(CC(=O)O)c1O)C2=O
inactive: [1] > 100 µM | [2] > 100 µM | [3] > 100 µM | [4] > 100 µM | [5] > 100 µM | [6] > 100 µM | [7] > 100 µM | [8] > 100 µM | [19] > 100 µM | [9] > 100 µM | [10] > 100 µM | [11] > 100 µM | [12] > 100 µM | [13] > 100 µM | [14] > 100 µM | [15] > 100 µM | [16] > 100 µM | [17] > 100 µM

CC(CC(=O)Nc1ccc(NC(=O)CC(C)/N=N\C(N)=S)cc1)/N=N\C(N)=S (centres undefined)
inactive: [1] > 100 µM | [2] > 100 µM | [3] > 100 µM | [4] > 100 µM | [5] > 100 µM | [6] > 100 µM | [7] > 100 µM | [8] > 100 µM | [19] 57.5 µM | [9] > 100 µM | [10] > 100 µM | [11] > 100 µM | [12] > 100 µM | [14] > 100 µM | [15] > 100 µM | [16] > 100 µM | [17] > 100 µM | [18] > 100 µM

Cc1c(OCCCOc2ccc3c(=O)cc(-c4ccccc4)oc3c2C)ccc2c(=O)cc(-c3ccccc3)oc12
inactive: [1] > 100 µM | [2] > 100 µM | [4] > 100 µM | [5] > 100 µM | [6] > 100 µM | [7] > 100 µM | [8] > 100 µM | [19] > 100 µM | [9] 68.7 µM | [10] > 100 µM | [11] > 100 µM | [12] > 100 µM | [13] > 100 µM | [14] > 100 µM | [15] > 100 µM | [16] > 100 µM | [17] > 100 µM | [18] > 100 µM

Cc1ccccc1C(=O)c1cc(O)ccc1O
inactive: [1] > 100 µM | [2] > 100 µM | [3] 53.8 µM | [4] > 100 µM | [5] > 100 µM | [6] > 100 µM | [7] 35.9 µM | [8] > 100 µM | [9] > 100 µM | [10] 65 µM | [11] > 100 µM | [12] > 100 µM | [13] 27.2 µM | [14] 99.5 µM | [15] 43 µM | [16] > 100 µM | [17] > 100 µM | [18] 65 µM

Cn1cc2ccccc2c1-c1nc(F)nc(F)n1
inactive: [1] > 100 µM | [2] 55 µM | [3] > 100 µM | [5] > 100 µM | [6] > 100 µM | [7] > 100 µM | [8] > 100 µM | [19] > 100 µM | [9] 97.9 µM | [10] > 100 µM | [11] > 100 µM | [12] > 100 µM | [13] > 100 µM | [14] > 100 µM | [15] 63.5 µM | [16] > 100 µM | [17] > 100 µM

COc1ccc2c3c([nH]c(=O)c2c1C(=O)O)-c1ccccc1CC3
inactive: [1] > 100 µM | [2] > 100 µM | [3] > 100 µM | [5] > 100 µM | [6] 49.7 µM | [7] > 100 µM | [8] > 100 µM | [19] > 100 µM | [9] > 100 µM | [10] > 100 µM | [11] > 100 µM | [12] > 100 µM | [13] > 100 µM | [14] > 100 µM | [15] > 100 µM | [16] > 100 µM | [17] > 100 µM

OCC1CC2CC1C1(C2)OCCO1 (centres undefined)
inactive: [1] > 100 µM | [2] > 100 µM | [4] > 100 µM | [5] > 100 µM | [6] > 100 µM | [7] > 100 µM | [8] > 100 µM | [19] > 100 µM | [9] > 100 µM | [10] > 100 µM | [11] > 100 µM | [12] > 100 µM | [13] > 100 µM | [14] > 100 µM | [15] > 100 µM | [16] > 100 µM | [17] > 100 µM | [18] > 100 µM

CC(C)c1ccc(/C=C/c2cc(C(=O)NNC(=O)NC3CCCCC3)nc(S)n2)cc1
inactive: [1] > 100 µM | [3] > 100 µM | [4] > 100 µM | [5] > 100 µM | [6] > 100 µM | [7] > 100 µM | [8] > 100 µM | [19] > 100 µM | [10] > 100 µM | [11] > 100 µM | [12] > 100 µM | [13] > 100 µM | [14] > 100 µM | [15] > 100 µM | [16] > 100 µM | [17] > 100 µM | [18] > 100 µM

NC(=O)C(=Cc1ccc(C(O)P(=O)(O)O)cc1)C(N)=O (centres undefined)
inactive: [1] > 100 µM | [2] > 100 µM | [3] > 100 µM | [4] > 100 µM | [5] > 100 µM | [6] > 100 µM | [7] > 100 µM | [8] > 100 µM | [19] > 100 µM | [10] > 100 µM | [11] > 100 µM | [12] > 100 µM | [13] > 100 µM | [14] > 100 µM | [15] > 100 µM | [16] > 100 µM | [17] > 100 µM | [18] > 100 µM

C[C@@H](C1CCC2C3C(=CC(=O)[C@@]21C)[C@H](C)[C@]1(CCC(=O)O1)C1OC31)[C@H]1C[C@]2(C)O[C@@](C)(O1)OC2(C)C (some centres undefined)
inactive: [1] > 100 µM | [2] > 100 µM | [4] > 100 µM | [5] > 100 µM | [6] > 100 µM | [7] > 100 µM | [8] > 100 µM | [19] > 100 µM | [9] > 100 µM | [10] > 100 µM | [11] > 100 µM | [12] > 100 µM | [13] > 100 µM | [14] > 100 µM | [16] > 100 µM | [17] > 100 µM | [18] > 100 µM
